Results from PubChem BioAssay (NCI).
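GI50 is the concentration that inhibits growth by half. At the TGI there is no net growth.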

How the values were obtained:
Assay in all cases: NCI-60 cell line screen, 384-well format
OVCAR-5 ovarian = test system: OVCAR-5 ovarian
SK-MEL-28 melanoma = test system: SK-MEL-28 melanoma
K-562 leukemia = test system: K-562 leukemia
CAKI-1 renal = test system: CAKI-1 renal
MALME-3M melanoma = test system: MALME-3M melanoma
MDA-MB-435 melanoma = test system: MDA-MB-435 melanoma
NCI/ADR-RES ovarian = test system: NCI/ADR-RES ovarian
SF-268 CNS = test system: SF-268 CNS
TK-10 renal = test system: TK-10 renal
MDA-MB-468 breast = test system: MDA-MB-468 breast
RXF 393 renal = test system: RXF 393 renal
SNB-75 CNS = test system: SNB-75 CNS
SR leukemia = test system: SR leukemia

Row | Compound | GI50 (OVCAR-5 ovarian) [µM] | TGI (OVCAR-5 ovarian) [µM] | GI50 (SK-MEL-28 melanoma) [µM] | TGI (SK-MEL-28 melanoma) [µM] | GI50 (K-562 leukemia) [µM] | TGI (K-562 leukemia) [µM] | GI50 (CAKI-1 renal) [µM] | TGI (CAKI-1 renal) [µM] | GI50 (MALME-3M melanoma) [µM] | TGI (MALME-3M melanoma) [µM] | GI50 (MDA-MB-435 melanoma) [µM] | TGI (MDA-MB-435 melanoma) [µM] | GI50 (NCI/ADR-RES ovarian) [µM] | TGI (NCI/ADR-RES ovarian) [µM] | GI50 (SF-268 CNS) [µM] | TGI (SF-268 CNS) [µM] | GI50 (TK-10 renal) [µM] | TGI (TK-10 renal) [µM] | GI50 (MDA-MB-468 breast) [µM] | TGI (MDA-MB-468 breast) [µM] | other results
1 | C[C@@H](Oc1cc(-n2cnc3ccc(CN4CCN(C)CC4)cc32)sc1C(N)=O)c1ccccc1C(F)(F)F | 0.532 | 3.76 | 1.53 | 2.94 | 0.307 | 1.01 | 1.63 | 4.5 | 1.15 | 2.37 | 0.244 | 0.602 | 1.69 | 3.59 | 0.882 | 3.64 | 1.22 | 6.03 | 0.214 | 0.446 | GI50 (RXF 393 renal): 0.192 µM; TGI (RXF 393 renal): 0.565 µM; GI50 (SNB-75 CNS): 1.68 µM; TGI (SNB-75 CNS): 5.3 µM; GI50 (SR leukemia): 0.146 µM; TGI (SR leukemia): 0.294 µM
2 | Cc1cc(-c2nc(C(=O)Nc3cc4oc(N5CCOCC5)nc4nc3N3CC[C@@H](O)C3)co2)ccn1 | 46 | > 100 | 49.6 | > 100 | 34.9 | > 100 | 8.01 | 38.3 | 19.4 | > 100 | 29.3 | > 100 | > 100 | > 100 | 54.2 | > 100 | 18.6 | > 100 | 8.63 | 33.1 | GI50 (RXF 393 renal): 12 µM; TGI (RXF 393 renal): 64.1 µM; GI50 (SNB-75 CNS): 11.2 µM; TGI (SNB-75 CNS): 58.8 µM; GI50 (SR leukemia): 18 µM; TGI (SR leukemia): 37.3 µM
